Blank lines part the entries; values can stand above or below the compound they belong to.
Experiments:
[1] = tested on: anti-fullerene antibodies; experiment: ELISA inhibition of antibody binding to 1-RSA; set-up: species or system mice; settings: for reactivity with polyclonal antibodies raised to C60: method not stated at the place; for inhibition of antibody binding to 1-RSA (ELISA inhibition): serum of mice immunized with 1-TG, plates coated with 1-RSA
Description: After a total of three immunizations at 3-week intervals, confirmation of an immune response was determined by direct ELISA in which polystyrene plates (Corning) were coated with the 1-RSA conjugate (0.5 mg/ml in 0.1 M NaHCO3, pH 9), and binding of preimmune and immune sera were determined by standard procedures. Development was with horseradish peroxidase-labeled goat anti-mouse IgG (Sigma), which tested negative for crossreaction with an IgM preparation. The substrate used was o-phenylenediamine.
(§1) Specificity of the response was determined by two procedures: double diffusion in agar (22) and competitive inhibition, as determined by ELISA using RSA and BSA conjugates of the fullerenes, as well as the oligo lysine derivatives. The fullerenes themselves were not soluble enough in aqueous solutions.
The adenosine conjugate had been synthesized using the same strategy used for the fullerenes, i.e., linkage to the epsilon amino groups of the lysines via an N-hydroxysuccinimide ester derivative.
After a total of 3 immunizations at 3 week intervals, confirmation of an immune response was determined by direct ELISA in which polystyrene plates (Corning) were coated with 1-RSA conjugate (0.5 mg/ml in O.1 N NaHCO3, pH 9) and binding of preimmune and immune sera determined by standard procedures. Development was with horseradish peroxide-labeled goat anti-mouse IgG (Sigma, St. Louis, MO) which tested negative for cross reaction with an IgM preparation. The substrate used was o-phenylenediamine.
(§2) Specificity of the response was determined by two procedures: double diffusion in agar and competitive inhibition, as determined by ELISA using RSA and BSA conjugates of the fullerenes, as well as the oligo lysine derivatives. The fullerenes themselves were not soluble enough in aqueous solutions.

[2] = acute and subchronic topical applications; cited from earlier work
[3] = Gamma-camera imaging biodistribution study; assay type: in vivo, Sprague-Dawley rats
Description: The biodistribution in mice of hydroxylated lanthanide-C82 encapsulates is under current investigation. The results presented here are regarded as preliminary as the sample is still small. Studies continue under a NIH Phase I grant. The neutron irradiated samples, along with a […] control sample, were used to perform a γ-camera imaging study on four 300 g Sprague-Dawley rats. Two rats were injected intraperitoneally (IP) with 54 and 18 μCi of ^166Ho activity from samples containing irradiated Ho-metallofullerois. Two control studies were performed by […] of approximately 660 μCi of ^166Ho^3+ in a 1% sodium citrate buffer. The anesthetized rats were scanned side-by-side on a single stage with a γ-camera starting 1 hour after injection and periodically thereafter over the ensuing 48 hours.

[4] = tested on: anti-fullerene antibodies; experiment: Double diffusion in agar; assay type: binding, mice
Description: as §1, §2

Compound: c12c3c4c5c1c1c6c7c2c2c8c3c3c9c4c4c%10c5c5c1c1c6c6c%11c%12c%13c%14c%15c%16c%17c%14c%14c%18c%13c%11c1c1c5c%10c5c(c%14c%10c%17c%11c%13c%16c%14c%16c%15c%12c%12c%16c(c2c7c%126)c2c8c3c(c%13c%142)c2c9c4c5c%10c%112)c%181 [Compound C70]
reactivity with polyclonal antibodies raised to C60 [1]: non-reactive
reactivity with polyclonal antibodies raised to C60 ([1]; listed as C70 fullerene): crossreacted
carcinogenic effects [2]: lack of carcinogenic effects

Compound: [166Ho+3] [^166Ho^3−]
urinary clearance ([3]; IP, commencing as soon as 1 hour post-injection): rapid
^166Ho activity excreted ([3]; after 24 hours): essentially all

inhibition of antibody binding to 1-RSA (ELISA inhibition) [1]: No inhibition
Compound: RSA: rabbit serum albumin, control

inhibition of antibody binding to 1-RSA (ELISA inhibition) [1]: No inhibition
Compound: TG: unsubstituted bovine thyroglobulin, carrier protein
precipitation in double diffusion in agar ([4]; TG solution diluted 5-fold): a line of precipitation was seen
precipitation in double diffusion in agar ([4]; serum of mice immunized with 1-TG): no visible precipitate
